Read-outs that look alike come from different tables or passages of the source.
What was measured:
[1] = molecular target: Recombinant SARS-CoV-2 3CL Protease (Severe acute respiratory syndrome coronavirus 2 (2019-nCoV) (SARS-CoV-2), UniProt P0DTD1); assay: Test Example 2: inhibitory activity test against SARS-CoV-2 3CL protease; assay type: biochemical; conditions: class symbols
SARS-CoV-2 [2] = assay: microbe, parasite or virus in culture; assay type: cell-based; conditions: Severe acute respiratory syndrome coronavirus 2, 72 h; VeroE6/TMPRSS2 cells, 3 days; class symbols
in vitro = conditions: human
[3] = system: SARS-CoV-2 hCoV19/Japan/TY11-927/2021 strain; design: species or system Syrian hamsters; conditions: in vivo
[4] = system: SARS-CoV-2 hCoV-19/Japan/TY7-501/2021; assay: Test Example 9: influence of human serum and mouse serum on anti-SARS-CoV-2 activity; assay type: cell-based; conditions: Severe acute respiratory syndrome coronavirus 2, serum 100% condition by linear regression
HCoV-229E = assay: Test Example 8: antiviral effect on HCoV-229E (MRC-5 cells, CellTiter-Glo); assay type: cell-based; conditions: Human coronavirus 229E, MRC5, read-out: EC50 (50% HCoV-229E infected cell death inhibitory concentration), 72 hours
Method: Test Example 8: Antiviral Effect on HCoV-229E
The test sample is preliminarily diluted with DMSO to an appropriate concentration, and a 3-fold serial dilution series is prepared and then dispensed into a 96-well plate and diluted in a maintenance medium (MEM, 2% FBS, penicillin-streptomycin).
MRC-5 cells (2×10^4 cells/well) suspended in a subculture medium (DMEM, 10% FBS, penicillin-streptomycin) are seeded in a 96-well plate a day before infection, and the next day, HCoV-229E (1000 TCID50/well) suspended in a maintenance medium (MEM, 2% FBS, penicillin-streptomycin) is infected for 1 hour. Thereafter, virus fluid is removed, a maintenance medium including a test reagent is added, and culturing is carried out in a CO2 incubator for 72 hours. Furthermore, in order to examine cytotoxicity of the test reagent, the same operation is performed in the absence of virus.
After returning the plate cultured for 72 hours to room temperature, CellTiter-Glo (registered trademark) 2.0 is dispensed into each well and mixed with a plate mixer. After a certain time interval, the luminescence signal (Lum) is measured with a plate reader.
When x is taken as the logarithmic value of the compound concentration and y as % Efficacy, the inhibition curve is approximated by the following Logistic regression equation, and the value of x when substituting 50(%) for y is calculated as EC50.
[formula] […]

[5] = system: SARS-CoV-2 hCoV-19/Japan/TY38-873/2021; assay: Test Example 10-2: CPE suppression in HEK293T/ACE2-TMPRSS2 cells (TY38-873); assay type: cell-based; conditions: Severe acute respiratory syndrome coronavirus 2, HEK-293T
[6] = system: SARS-CoV-2 hCoV19/Japan/TY11-927/2021 strain; assay type: in vivo, Syrian hamsters; conditions: 3 days after start of living together
SARS-CoV Hanoi strain = assay: microbe, parasite or virus in culture; conditions: Severe acute respiratory syndrome coronavirus, VeroE6/TMPRSS2, 72 h, read-out: EC50 (50% virus infected cell death inhibitory concentration)
SARS-CoV-2 [7] = assay: microbe, parasite or virus in culture; assay type: cell-based; conditions: Severe acute respiratory syndrome coronavirus 2, HEK-293T; HEK293T/ACE2-TMPRSS2 cells; strains WK-521, QK002, TY7-501, TY8-612, TY11-927-P1
[8] = system: SARS-CoV-2 hCoV19/Japan/TY11-927/2021 strain; assay type: in vivo, Syrian hamsters; conditions: 6 days after start
HCoV-OC43 = assay: microbe, parasite or virus in culture; conditions: Betacoronavirus 1, OC43, MRC5, 42 h, read-out: EC90 (90% HCoV-OC43 viral replication inhibitory concentration)
[9] = system: SARS-CoV-2 Omicron Strain; assay: Test Example 1-3: CPE suppression in Vero E6/TMPRSS2 cells, Omicron strains; assay type: cell-based
[10] = molecular target: SARS-CoV-2 3CL Protease WT (Severe acute respiratory syndrome coronavirus 2 (2019-nCoV) (SARS-CoV-2), UniProt P0DTD1); assay: biochemical; conditions: read-out: EC50 (table head; method calculates IC50)

| Compound | IC50 [1] [nM] | EC50 (SARS-CoV-2 [2]) [nM] | also measured |
| --- | --- | --- | --- |
| Cn1cc2cc(Nc3nc(=O)n(-c4cncc(CO)c4)c(=O)n3Cc3cc(F)c(F)c(F)c3)ccc2n1 [Compound I-008] | 100 to 1000 | – | – |
| Cc1nc2cc(C)c(Nc3nc(=O)n(Cc4c[nH]cn4)c(=O)n3Cc3cc(F)c(F)c(F)c3)cc2s1 [Compound I-001] | 1000 to 10000 | – | – |
| Cc1cncc(-n2c(=O)nc(Nc3cc4cn(C)nc4cc3F)n(Cc3ccc(F)c(C#N)c3)c2=O)c1 [Compound I-018] | < 100 | < 1000 | – |
| Cn1cnc(Cn2c(=O)nc(Nc3cc4cn(C(F)F)nc4cc3Cl)n(Cc3cc(F)c(F)c(F)c3)c2=O)n1 [Compound I-030] | < 100 | 1000 to 10000 | – |
| O=c1nc(Nc2ccc3nn(CC(F)F)cc3c2)n(Cc2cc(F)c(F)c(F)c2)c(=O)n1-c1cncc2ccccc12 [Compound I-034] | < 100 | < 1000 | – |
| CC(=O)N1CC(n2cc3cc(Nc4nc(=O)n(-c5cncc6ccccc56)c(=O)n4Cc4cc(F)c(F)c(F)c4)c(Cl)cc3n2)C1 [Compound I-007] | < 100 | – | – |
| N#Cc1cc(Cn2c(Nc3ccc4nn(CC(F)F)cc4c3)nc(=O)n(-c3cncc4ccccc34)c2=O)ccc1F [Compound I-009] | < 100 | < 1000 | – |
| Cc1cncc(-n2c(=O)nc(Nc3ccc4nn(CC(F)F)cc4c3)n(Cc3ccc(F)c(C#N)c3)c2=O)c1 [Compound I-011] | < 100 | < 1000 | – |
| Cc1cncc(-n2c(=O)nc(Nc3cc4cn(C(F)F)nc4cc3Cl)n(Cc3ccc(F)c(C#N)c3)c2=O)c1 [Compound I-026] | < 100 | < 1000 | – |
| O=c1nc(Nc2cc3cn(CCN4CCOCC4)nc3cc2Cl)n(Cc2cc(F)c(F)c(F)c2)c(=O)n1-c1cncc2ccccc12 [Compound I-020] | < 100 | 1000 to 10000 | – |
| Cn1cnc(Cn2c(=O)[nH]/c(=N\c3cc4cn(C)nc4cc3Cl)n(Cc3cc(F)c(F)cc3F)c2=O)n1 | – | – | CC50 (in vitro): > 200000 nM; lung virus titer of uninfected hamsters co-housed with treated infected hamster [3]: the detection limit value or less; EC50 ([4]; human serum, read-out: human serum PA-EC50 (protein-adjusted EC50)): 3020 nM; EC50 ([4]; mouse serum, read-out: mouse serum PA-EC50 (protein-adjusted EC50)): 3930 nM; EC50 (HCoV-229E): 5530 nM; EC50 [5]: 83 nM; intranasal concha virus titer of uninfected hamster co-housed with treated infected hamster [6]: 2.89 log10 TCID50/mL; lung virus titer of uninfected hamster co-housed with treated infected hamster [6]: 2.97 log10 TCID50/mL; EC50 (SARS-CoV Hanoi strain): 209 nM; EC50 (SARS-CoV-2 [7]): 26 to 58 nM; lung virus titer of administered hamsters co-housed with infected hamster ([8]; 30 mg/kg oral twice a day for six days): 3.48 log10 PFU50/mL; lung virus titer of administered hamsters co-housed with infected hamster ([8]; 200 mg/kg oral twice a day for six days): a detection limit value or less; EC90 (HCoV-OC43): 74 nM; EC50 ([9]; Severe acute respiratory syndrome coronavirus 2, VeroE6/TMPRSS2, Omicron TY38-871 (BA.1.1)): 360 nM; EC50 ([9]; Severe acute respiratory syndrome coronavirus 2, VeroE6/TMPRSS2, Omicron TY38-873 (BA.1)): 290 nM; EC50 ([9]; Severe acute respiratory syndrome coronavirus 2, VeroE6/TMPRSS2, Omicron TY40-385 (BA.2)): 520 nM; EC50 ([9]; Severe acute respiratory syndrome coronavirus 2, VeroE6/TMPRSS2, Omicron TY41-686 (XE)): 440 nM; EC50 ([9]; Severe acute respiratory syndrome coronavirus 2, VeroE6/TMPRSS2, Omicron TY41-702 (BA.5)): 400 nM; EC50 ([9]; Severe acute respiratory syndrome coronavirus 2, VeroE6/TMPRSS2, Omicron TY41-703 (BA.4)): 220 nM; EC50 ([9]; Severe acute respiratory syndrome coronavirus 2, VeroE6/TMPRSS2, Omicron TY41-716 (BA.2.75)): 300 nM |
| Cc1cc2nn(C)cc2cc1Nc1nc(=O)n(-c2cncc3ccccc23)c(=O)n1Cc1ccc(F)c(C#N)c1 [Compound I-027] | < 100 | < 1000 | – |
| Cc1cncc(-n2c(=O)nc(Nc3cc4cn(C)nc4cc3Cl)n(Cc3cc(F)c(F)c(F)c3)c2=O)c1 | – | – | IC50 [10]: 16.7 nM |
| Cn1cnc(Cn2c(=O)nc(Nc3cc4cn(CCO)nc4cc3Cl)n(Cc3cc(F)c(F)c(F)c3)c2=O)n1 [Compound I-028] | < 100 | 1000 to 10000 | – |
| N#Cc1cc(Cn2c(Nc3cc4cn(C(F)F)nc4cc3Cl)nc(=O)n(-c3cncc4ccccc34)c2=O)ccc1F [Compound I-024] | < 100 | < 1000 | – |
| Cc1nc2cc(Cl)c(Nc3nc(=O)n(-c4cncc5ccccc45)c(=O)n3Cc3cc(F)c(F)c(F)c3)cc2n1C [Compound I-032] | < 100 | 1000 to 10000 | – |
| Cn1cc2cc(Nc3nc(=O)n(-c4cncc5ccccc45)c(=O)n3Cc3cc(F)c(F)c(F)c3)c(Cl)cc2n1 [Compound I-014] | < 100 | < 1000 | – |
| Cn1cnc(Cn2c(=O)nc(Nc3cc4cn(C)nc4cc3Cl)n(Cc3cc(F)c(F)c(F)c3)c2=O)n1 [Compound I-021] | < 100 | < 1000 | – |
| Cn1cc2cc(Nc3nc(=O)n(-c4cncc5ccccc45)c(=O)n3Cc3cc(F)c(F)c(F)c3)ccc2n1 [Compound I-016] | < 100 | < 1000 | – |
| Cc1cncc(-n2c(=O)nc(Nc3cc4cn(C)nc4cc3C)n(Cc3ccc(F)c(C#N)c3)c2=O)c1 [Compound I-019] | < 100 | < 1000 | – |
| Cc1cncc(-n2c(=O)nc(Nc3cc4cn(C)nc4cc3C)n(Cc3cc(F)c(F)c(F)c3)c2=O)c1 [Compound I-004] | < 100 | 1000 to 10000 | – |
| Cn1cnc(Cn2c(=O)nc(Nc3cc4cn(CC(F)F)nc4cc3Cl)n(Cc3cc(F)c(F)c(F)c3)c2=O)n1 [Compound I-029] | < 100 | < 1000 | – |
| Cc1nc2cc(Cl)c(Nc3nc(=O)n(Cc4ncn(C)n4)c(=O)n3Cc3cc(F)c(F)c(F)c3)cc2n1C [Compound I-022] | < 100 | 1000 to 10000 | – |
| Cc1cc2nn(C)cc2cc1Nc1nc(=O)n(-c2cncc3ccccc23)c(=O)n1Cc1cc(F)c(F)c(F)c1 [Compound I-013] | < 100 | 1000 to 10000 | – |
| CC(=O)NCCn1cc2cc(Nc3nc(=O)n(-c4cncc5ccccc45)c(=O)n3Cc3cc(F)c(F)c(F)c3)c(Cl)cc2n1 [Compound I-033] | < 100 | 1000 to 10000 | – |
| Cn1cc2cc(Nc3nc(=O)n(-c4cncc5ccccc45)c(=O)n3Cc3ccc(F)c(C#N)c3)c(F)cc2n1 [Compound I-025] | < 100 | < 1000 | – |
| Cc1cncc(-n2c(=O)nc(Nc3cc4cn(C)nc4cc3F)n(Cc3cc(F)c(F)c(F)c3)c2=O)c1 [Compound I-002] | < 100 | < 1000 | – |
| Cn1cc2cc(Nc3nc(=O)n(-c4cncc5ccccc45)c(=O)n3Cc3ccc(F)c(C#N)c3)c(Cl)cc2n1 [Compound I-015] | < 100 | < 1000 | – |
